Experiment [1] concerns MRSA No. 3-50 strain. It is filed as cell-based, Staphylococcus aureus. The conditions noted are these: for growth: MRSA No. 3-50; for MIC, single administration of the peptide: MRSA. The source says:
Synergistic antimicrobial activities by the combinations of tachyplesin I and β-lactam antibiotics or chloramphenicol antibiotics against above mentioned clinically isolated MRSAs were examined and the results against MRSA No. 3-50 strain are shown in the following Tables.

The test system of experiment [2] is 55 strains of clinically isolated MRSA. It is filed as cell-based, Staphylococcus aureus. The source says: The MRSAs used for the experiments shown below were isolated as follows. Specimens of urine, sputa and pus of hospitalized patients in Nagoya University, School of Medicine Hospital were smeared and cultured on blood agar medium. Staphylococcus aureus was isolated and identified from the grown colonies. Their sensitivity were examined using BBL test disks containing one μg of oxacillin (BBL Microbiology System Co., Ltd.) and strains showing inhibitory zone of 10 mm or less were classified as MRSA. A total of 55 strains of MRSA Nos. 170, 199, 3-50, 3-53 and so forth were isolated. Their sensitivity were confirmed by an agar plate dilution method using Mueller-Hinton agar medium of BBL (BBL Microbiology System Co., Ltd.) containing 100, 50, 25, 12.5, 6.3, 3.2, 1.6 or 0.8 μg/ml of methicillin (Banyu Pharmaceutical Co., Ltd.).
MRSAs obtained by the preceding method were cultured in L medium (1% bactotrypton, 0.5% yeast extract, 0.5% NaCl, pH 7.2) overnight and diluted 40-fold with a phosphate buffered saline solution (PBS).
Separately, tachyplesin I was diluted by 2-fold method using M9 medium (a synthetic medium added with 1% casamino acid) or T broth (0.5% bactotrypton and 0.5% NaCl) to give concentrations of 200-0.4 μg/ml and poured in a 96 well microplate at 100 μl/well each.
The 40-fold diluted bacterial solution was further diluted 10-fold with the M9 medium or T broth and poured 100 μl each to the above wells and the combined solution was mixed to give final concentration of 100-0.2 μg/ml of tachyplesin I. The bacterial concentration was made approximately 10^6 cfu/well (cfu=colony forming unit).
The resultant mixed solutions of bacterial and tachyplesin I solutions were cultured overnight (18 hrs.) at 37° C. The growth of bacteria was determined by the turbidity of the medium and the minimum concentration required to inhibit their growth was used as the minimum inhibitory concentration (MIC).
MICs of various antimicrobial peptides derived from horseshoe crab against 55 strains of clinically isolated MRSA were determined by a similar method to that shown above.

Experiment [3] has as its system artificial vesicles using inner membrane of E. coli. Kind of experiment: Action on membrane potential in artificial vesicles in vitro. It is filed as biochemical. The source says: The antimicrobial mechanisms of the peptides such as tachyplesins against MRSAs are supposed to be similar to those of against Escherichia coil and Salmonella spp. There is an energy producing mechanism by oxidative phosphorylation in cytoplasmic membrane of bacteria, which couples with membrane potential. The action mechanism against E. coli was modeled in artificial vesicles using inner membrane of E. coli and the action of tachyplesin I was investigated in vitro.

Where [4] appears, read: antibiotic 10 μg/ml alone (TAC-I 0 μg/ml).
Setting [5] is: antibiotic 20 μg/ml alone (TAC-I 0 μg/ml).
The mark [6] stands for this setting: against 55 strains of clinically isolated MRSA.

In brackets after ≈: the same amount, converted by molar mass. Like-named read-outs stand apart in the source and are kept apart here. Where a SMILES comes first, the peptide text is derived from it. Bridges are numbered along the chain shown (N, C = ends).
For growth in this document: key: + shows growth; - shows no growth.

`Cc1nnc(SCC2=C(C(=O)O)N3C(=O)[C@@H](NC(=O)Cn4cnnn4)[C@H]3SC2)s1` [CEZ, Cefazolin]: the growth entry in experiment [1] (setting [4]) is listed as “+”; in experiment [1] (setting [5]) it was “+”; in experiment [1] (antibiotic 40 μg/ml alone (TAC-I 0 μg/ml)), “-”.

The term MIC denotes the smallest concentration in the dilution series that meets the test's criterion for growth inhibition. A lower MIC goes with a more susceptible organism. Regarding `CC[C@H](C)[C@@H]1NC(=O)CNC(=O)[C@H](CCCNC(=N)N)NC(=O)[C@H](Cc2ccc(O)cc2)NC(=O)[C@@H]2CSSC[C@H](NC1=O)C(=O)N[C@@H](Cc1ccc(O)cc1)C(=O)N[C@@H](CCCNC(=N)N)C(=O)N[C@@H](CCCNC(=N)N)C(=O)N[C@H](C(=O)N[C@@H](CCCNC(=N)N)C(N)=O)CSSC[C@H](NC(=O)[C@H](Cc1c[nH]c3ccccc13)NC(=O)[C@@H](N)CCCCN)C(=O)N[C@@H](Cc1ccccc1)C(=O)N[C@@H](CCCNC(=N)N)C(=O)N[C@@H](C(C)C)C(=O)N2` [Tachyplesin I] (H-KWCFRVCYRGICYRRCR-NH2; disulfide 3-16, 7-12; N-terminus and C-terminus assumed), the growth result in experiment [1] (TAC-I 0.4 μg/ml alone (antibiotic 0 μg/ml)), in experiment [1] (TAC-I 0.8 μg/ml alone (antibiotic 0 μg/ml)) and in experiment [1] (TAC-I 1.6 μg/ml alone (antibiotic 0 μg/ml)) was “+” each time. The “MIC, single administration of the peptide” value in experiment [1] came to 3.2 µg/mL. Besides, the MIC came to 6.3 µg/mL (≈ 2.78 µM) in experiment [2] (47 strains (85% of total 55 MRSA strains)), 12.5 µg/mL (≈ 5.52 µM) in experiment [2] (one strain (2% of total 55 MRSA strains)) and 3.2 µg/mL (≈ 1.41 µM) in experiment [2] (seven strains (13% of total 55 MRSA strains)). For the same compound, the “effect on membrane potential generated in the cytoplasmic membrane” value in experiment [3] is recorded as “depolarized the membrane potential”.

On to `O=C(N[C@H](CO)[C@H](O)c1ccc([N+](=O)[O-])cc1)C(Cl)Cl` [CP, Chloramphenicol], for which the growth result in experiment [1] (antibiotic 5 μg/ml alone (TAC-I 0 μg/ml)), in experiment [1] (setting [4]) and in experiment [1] (setting [5]) was “+” each time.

Turning to `CC[C@H](C)[C@@H]1NC(=O)CNC(=O)[C@H](CCCNC(=N)N)NC(=O)[C@H](Cc2ccc(O)cc2)NC(=O)[C@@H]2CSSC[C@H](NC1=O)C(=O)N[C@@H](Cc1ccc(O)cc1)C(=O)N[C@@H](CCCNC(=N)N)C(=O)N[C@@H](CCCCN)C(=O)N[C@H](C(=O)N[C@@H](CCCNC(=N)N)C(N)=O)CSSC[C@H](NC(=O)[C@H](Cc1c[nH]c3ccccc13)NC(=O)[C@@H](N)CCCNC(=N)N)C(=O)N[C@@H](Cc1ccccc1)C(=O)N[C@@H](CCCNC(=N)N)C(=O)N[C@@H](C(C)C)C(=O)N2` [Tachyplesin II] (H-RWCFRVCYRGICYRKCR-NH2; disulfide 3-16, 7-12; N-terminus and C-terminus assumed), the minimum inhibitory concentration (MIC) in experiment [2] (setting [6]) was determined as 3.2 µg/mL (≈ 1.41 µM).

Take `CC1(C)S[C@@H]2[C@H](NC(=O)[C@H](N)c3ccccc3)C(=O)N2[C@H]1C(=O)O` [ABPC, Ampicillin]: the growth result in experiment [1] (setting [4]) and in experiment [1] (setting [5]) was “+” in each case.

Turning to `CC(C)[C@@H]1NC(=O)[C@H](CCCNC(=N)N)NC(=O)[C@H](Cc2ccccc2)NC(=O)[C@@H](NC(=O)[C@H](Cc2c[nH]c3ccccc23)NC(=O)[C@H](CCCNC(=N)N)NC(=O)[C@@H](N)CCCNC(=N)N)CSSC[C@@H](C(=O)N[C@@H](CCCNC(=N)N)C(N)=O)NC(=O)[C@H](CCCCN)NC(=O)[C@H](CCCNC(=N)N)NC(=O)[C@H](Cc2ccc(O)cc2)NC(=O)[C@@H]2CSSC[C@H](NC1=O)C(=O)N[C@@H](Cc1ccc(O)cc1)C(=O)N[C@@H](CCCCN)C(=O)NCC(=O)N[C@@H](Cc1ccccc1)C(=O)N2` [Polyphemusin II] (H-RRWCFRVCYKGFCYRKCR-NH2; disulfide 4-17, 8-13), the “MIC, single administration of the peptide” value in experiment [1] stood at 6.3 µg/mL. The minimum inhibitory concentration (MIC) in experiment [2] (setting [6]) came to 6.3 µg/mL (≈ 2.6 µM).

Values taken from patent US5610139A, “Antimicrobial compositions and pharmaceutical preparations thereof” (Seikagaku Corporation, priority 1992, dated 1997).
